Test results from ChEMBL document CHEMBL3352768, “Synthesis and PGE₂ production inhibition of s-triazine derivatives as a novel scaffold in RAW 264.7 macrophage cells” (Bioorg Med Chem Lett, 2014).

What was measured:
RAW264.7 [1] = test: Inhibition of PGE2 production in LPS-induced mouse RAW264.7 cells at 1 uM; format: functional
RAW264.7 [2] = test: Cytotoxicity against mouse RAW264.7 cells assessed as reduction in cell viability by MTT assay; format: cell-based
RAW264.7 [3] = test: Inhibition of PGE2 production in LPS-induced mouse RAW264.7 cells at 10 uM; format: functional
RAW264.7 [4] = test: Inhibition of PGE2 production in LPS-induced mouse RAW264.7 cells; format: functional, cell-based
[5] = biological target: T1, Prostaglandin G/H synthase 2 (Homo sapiens) (UniProt P35354); test: Inhibition of human recombinant COX2 in cell-free system at 10 uM by enzyme immunoassay
T1 sequence (whole entry): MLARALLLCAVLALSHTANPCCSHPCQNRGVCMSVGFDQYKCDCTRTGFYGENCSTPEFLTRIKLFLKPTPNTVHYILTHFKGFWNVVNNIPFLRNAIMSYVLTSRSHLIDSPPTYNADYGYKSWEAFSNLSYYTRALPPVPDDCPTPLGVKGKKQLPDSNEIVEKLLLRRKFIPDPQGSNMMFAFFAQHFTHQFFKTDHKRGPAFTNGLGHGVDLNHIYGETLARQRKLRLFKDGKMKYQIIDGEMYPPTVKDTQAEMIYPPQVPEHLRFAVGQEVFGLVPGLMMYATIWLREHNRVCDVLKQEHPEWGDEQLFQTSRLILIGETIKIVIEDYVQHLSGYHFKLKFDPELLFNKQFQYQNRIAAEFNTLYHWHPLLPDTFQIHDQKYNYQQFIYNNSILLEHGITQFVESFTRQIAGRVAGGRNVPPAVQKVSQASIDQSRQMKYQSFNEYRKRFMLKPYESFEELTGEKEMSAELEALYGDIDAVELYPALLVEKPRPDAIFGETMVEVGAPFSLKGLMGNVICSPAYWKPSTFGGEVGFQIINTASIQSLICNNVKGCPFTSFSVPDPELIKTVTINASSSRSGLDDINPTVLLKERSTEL

[6] = biological target: T2, Prostaglandin G/H synthase 2 (Homo sapiens, UniProt P35354); test: Inhibition of human recombinant COX2 in cell-free system by enzyme immunoassay
T2 sequence (P35354 whole entry): T1 sequence (whole entry)

RAW264.7 [7] = test: Inhibition of PGE2 production in LPS-induced mouse RAW264.7 cells at 3 uM; format: functional

Cc1nc(Nc2ccc(C(C)C)cc2)nc(SC(C(N)=O)c2ccccc2)n1 (stereo not given)
inhibition at 1 µM (RAW264.7 [1]): 26.5%
Activity (RAW264.7 [2]): < 10 µM

COC(=O)C(Sc1nc(Cl)nc(Nc2ccc(Cc3ccccc3)cc2)n1)c1ccccc1 (stereo not given)
inhibition at 10 µM (RAW264.7 [3]): 90.8%
IC50 (RAW264.7 [4]): 5.52 µM
inhibition [5]: 0%
Activity (RAW264.7 [2]): > 10 µM

CC(C)c1ccc2c(c1)c(SC(C)(C)C)c(CC(C)(C)C(=O)O)n2Cc1ccc(Cl)cc1
IC50 [6]: 58 µM

COC(=O)C(Sc1nc(Cl)nc(Nc2ccc(Oc3ccccc3)cc2)n1)c1cccc2ccccc12 (stereo not given)
inhibition at 10 µM (RAW264.7 [3]): 72.5%
Activity (RAW264.7 [2]): > 10 µM

COC(=O)C(Sc1nc(Cl)nc(Nc2ccc(C(C)C)cc2)n1)c1ccccc1 (stereo not given)
inhibition at 10 µM (RAW264.7 [3]): 91.8%
IC50 (RAW264.7 [4]): 5.76 µM
inhibition [5]: 31.8%
Activity (RAW264.7 [2]): > 10 µM

COC(=O)C(Sc1nc(Cl)nc(Nc2ccc(-c3ccccc3)cc2)n1)c1ccccc1 (stereo not given)
inhibition at 10 µM (RAW264.7 [3]): 82.7%
Activity (RAW264.7 [2]): > 10 µM

COC(=O)C(Sc1nc(Cl)nc(Nc2ccc(Oc3ccccc3)cc2)n1)c1ccccc1 (stereo not given)
inhibition at 10 µM (RAW264.7 [3]): 85.8%
Activity (RAW264.7 [2]): > 10 µM

COC(=O)C(Sc1nc(C)nc(Nc2ccc(C(C)C)cc2)n1)c1ccccc1 (stereo not given)
inhibition at 10 µM (RAW264.7 [3]): 85.7%
Activity (RAW264.7 [2]): > 10 µM

CCOC(=O)C(Sc1nc(Cl)nc(Nc2ccc(C3CCCCC3)cc2)n1)c1cccc2ccccc12 (stereo not given)
inhibition at 10 µM (RAW264.7 [3]): 43.7%
Activity (RAW264.7 [2]): > 10 µM

O=C(O)C(Sc1nc(Cl)nc(Nc2ccc(-c3ccccc3)cc2)n1)c1cccc2ccccc12 (stereo not given)
inhibition at 10 µM (RAW264.7 [3]): 7.77%
Activity (RAW264.7 [2]): > 10 µM

CS(=O)(=O)Nc1ccc([N+](=O)[O-])cc1OC1CCCCC1 [NS-398]
inhibition at 3 µM (RAW264.7 [7]): 99.4%

CCOC(=O)C(Sc1nc(Cl)nc(Nc2ccc(Cc3ccccc3)cc2)n1)c1cccc2ccccc12 (stereo not given)
inhibition at 10 µM (RAW264.7 [3]): 72.6%
Activity (RAW264.7 [2]): > 10 µM

CCOC(=O)C(Sc1nc(Cl)nc(Nc2ccc(-c3ccccc3)cc2)n1)c1cccc2ccccc12 (stereo not given)
inhibition at 10 µM (RAW264.7 [3]): 78.6%
Activity (RAW264.7 [2]): > 10 µM

COC(=O)C(Sc1nc(Cl)nc(Nc2ccc(C(C)C)cc2)n1)c1cccc2ccccc12 (stereo not given)
inhibition at 10 µM (RAW264.7 [3]): 88.7%
Activity (RAW264.7 [2]): > 10 µM
